{
  "source": "patent US11612595B2",
  "about": "“Compositions and methods for treating rheumatoid arthritis” (Generos Biopharma Ltd., priority 2017, dated 2023)",
  "key": {"[1]": {"assay": "weight changes in mouse CIA model", "type": "in vivo, DBA/1J mice", "details": "5 mg/kg i.p. daily", "description": "FIGS. 7A and 78 show graphs depicting weight changes in five groups of mouse CIA models under different treatment schemes. DBA/1 mice were randomly divided into 9 groups with 10 mice each group. On day 0 and 21, all of them except blank control group were inoculated with 50 ul collagen plus CFA mixture subcutaneously at back flank near tail. The weights of all 90 mice were monitored 3 times a week throughout the experiment.\n(§1) Eight of nine groups (10 mice in each group) of male DBA/1J mice (age 9-10 weeks. H-2q haplotype) were subject to CIA model induction and then to different treatment schemes. The group of mice without CIA model induction was used as a control (Blank). Specifically, Bovine type II collagen (Chondrex) was mixed with Freund's complete adjuvant (CFA) (Sigma) and injected s.c. to flank near tail of the mice twice (the second injection was made 21 days after the first injection) to create CIA model mice. The eight groups of CIA model mice were separated into four prophylactic groups and four therapeutic groups, with each group subjected to different treatments.\n(§2) In the four prophylactic groups, daily treatments started from the date when the first CIA induction injection was made. The first of the four prophylactic groups of CIA model mice were treated with 30% PEG300 (containing 4% DMSO-all 30% PEG300 in the application contains 4% DMSO) solution via intraperitoneal injection as controls (Model). The second of the four prophylactic groups of CIA model mice were treated with nicotinohydrazide (Calbiochem) 10 mg/kg in 30% PEG300 solution via intraperitoneal injection (573108 10 mg/kg). The third of the four prophylactic groups of CIA model mice were treated with nicotinohydrazide (Calbiochem) 5 mg/kg in 30% PEG300 solution via intraperitoneal injection (573108 5 mg/kg). The last of the four prophylactic groups of CIA model mice were treated with Tofacitinib (Selleckchem) 5 mg/kg in 30% PEG300 solution via intraperitoneal injection (Tofacitinib 5 mg/kg).\n(§3) In the four therapeutic groups, daily treatments started from the date when the second CIA induction injection was made. The first of the four therapeutic groups of CIA model mice were treated with 30% PEG300 solution via intraperitoneal injection as controls (Model). The second of the four therapeutic groups of CIA model mice were treated with nicotinohydrazide (Calbiochem) 10 mg/kg in 30% PEG300 solution via intraperitoncal injection (573108 10 mg/kg). The third of the four therapeutic groups of CIA model mice were treated with nicotinohydrazide (Calbiochem) 5 mg/kg in 30% PEG300 solution via intraperitoneal injection (573108 5 mg/kg). The last of the four therapeutic groups of CIA model mice were treated with Tofacitinib (Selleckchem) 5 mg/kg in 30% PEG300 solution via intraperitoncal injection (Tofacitinib 5 mg/kg).\n(§4) The inventors collected data of the weight, and clinical scores of the mice every 2-3 days and performed statistic analysis. The method used in the statistic analysis was Student's t test, unpaired, two-tailed analysis."}, "[2]": {"tested_on": "collagen-induced arthritis (CIA) model mice", "assay": "collagen-induced arthritis (CIA) model mice, clinical scores", "type": "in vivo, DBA/1J mice", "design": "key to Pairwise analysis of the difference between groups (clinical scores), vs Model / Pairwise analysis of the difference between groups (clinical scores), S5i 5 mpk vs S5i 10 mpk: p values from pairwise comparisons", "details": "for clinical scores compared to Model: 5 mg/kg i.p. daily; for Pairwise analysis of the difference between groups (clinical scores), vs Model: 5 mpk", "description": "FIGS. 8A and 8B show graphs depicting clinical score changes in four groups of CIA mouse models under different treatment schemes. In FIG. 8A, different chemicals (DMSO as control for Model group, blank group is left untreated) were daily administered intraperitoneally at the indicated doses from the first injection of the collagen agent. In FIG. 8B, different chemicals were daily administered intraperitoneally from the second injection of collagen agent at the indicated doses. Clinical scores were given double-blindly according to the scoring scheme every 2 days.\nFIGS. 9A and 9B show graphs of clinical scores at day 44 for each group, the overall difference analyzed by ANOVA is significant p<0.0001, while the p value between Model and each individual group is labeled above the bar * p<0.05, ** p<0.01.\nas §1, §2, §3, §4\nThe clinical scores were derived according to the scheme in Table 2."}},
  "data": [
    {"smiles": "C[C@@H]1CCN(C(=O)CC#N)C[C@@H]1N(C)c1ncnc2[nH]ccc12", "note": "[Tofacitinib]", "values": [
      {"measurement": "trend of weight changes, p vs Model", "setting": "[1]; prophylactic groups", "value": 0.0130},
      {"measurement": "trend of weight changes, p vs Model", "setting": "[1]; therapeutic groups", "value": 0.0005},
      {"measurement": "clinical scores compared to Model", "setting": "[2]; prophylactic groups", "value": "reduced clinical scores"},
      {"measurement": "Pairwise analysis of the difference between groups (clinical scores), vs Model", "setting": "[2]; prophylactic groups, Day 28", "value": 0.0949},
      {"measurement": "Pairwise analysis of the difference between groups (clinical scores), vs Model", "setting": "[2]; prophylactic groups, Day 30", "value": 0.0496},
      {"measurement": "Pairwise analysis of the difference between groups (clinical scores), vs Model", "setting": "[2]; prophylactic groups, Day 32", "value": 0.0610},
      {"measurement": "Pairwise analysis of the difference between groups (clinical scores), vs Model", "setting": "[2]; prophylactic groups, Day 35", "value": 0.0064},
      {"measurement": "Pairwise analysis of the difference between groups (clinical scores), vs Model", "setting": "[2]; prophylactic groups, Day 37", "value": 0.0178},
      {"measurement": "Pairwise analysis of the difference between groups (clinical scores), vs Model", "setting": "[2]; prophylactic groups, Day 39", "value": 0.0010},
      {"measurement": "Pairwise analysis of the difference between groups (clinical scores), vs Model", "setting": "[2]; prophylactic groups, Day 42", "value": 0.0015},
      {"measurement": "Pairwise analysis of the difference between groups (clinical scores), vs Model", "setting": "[2]; prophylactic groups, Day 44", "value": 0.0026},
      {"measurement": "clinical scores compared to Model", "setting": "[2]; therapeutic groups", "value": "reduced clinical scores"},
      {"measurement": "Pairwise analysis of the difference between groups (clinical scores), vs Model", "setting": "[2]; therapeutic groups, Day 28", "value": 0.0258},
      {"measurement": "Pairwise analysis of the difference between groups (clinical scores), vs Model", "setting": "[2]; therapeutic groups, Day 30", "value": 0.0471},
      {"measurement": "Pairwise analysis of the difference between groups (clinical scores), vs Model", "setting": "[2]; therapeutic groups, Day 32", "value": 0.0138},
      {"measurement": "Pairwise analysis of the difference between groups (clinical scores), vs Model", "setting": "[2]; therapeutic groups, Day 35", "value": 0.0163},
      {"measurement": "Pairwise analysis of the difference between groups (clinical scores), vs Model", "setting": "[2]; therapeutic groups, Day 37", "value": 0.0170},
      {"measurement": "Pairwise analysis of the difference between groups (clinical scores), vs Model", "setting": "[2]; therapeutic groups, Day 39", "value": 0.0153},
      {"measurement": "Pairwise analysis of the difference between groups (clinical scores), vs Model", "setting": "[2]; therapeutic groups, Day 42", "value": 0.0081},
      {"measurement": "Pairwise analysis of the difference between groups (clinical scores), vs Model", "setting": "[2]; therapeutic groups, Day 44", "value": 0.0044}
    ]}
  ]
}
